Data on 25 compounds can be found in the OPERA property sets (Mansouri et al. 2018).

For orientation: solubility means the dissolved amount per volume that the medium holds.

Molecules are shown by their SMILES. Values after ≈ are worked out from the molar mass of the structure shown.

For one series the following is noted: 20 °C.
`Cc1ccco1` yielded a solubility of 36500 µM (≈ 3000 µg/mL). `CCCCOCCOCCCC` registered a solubility of 11500 µM (≈ 2000 µg/mL). `CCCCCCOCCO` returned a solubility of 67700 µM (≈ 9900 µg/mL). The compound `CCCCOCCOCCOCCCC` came in with a solubility of 13700 µM (≈ 3000 µg/mL). This solubility is about 4.9-fold lower than that of the compound before.

Staying with this series, now noted: 25 °C.
Regarding `Clc1cc(Cl)c(Cl)c(-c2c(Cl)ccc(Cl)c2Cl)c1`, the solubility stood at 0.0151 µM (≈ 0.00544 µg/mL). Same read-out and setting: the result for `Clc1cc(Cl)c(-c2c(Cl)ccc(Cl)c2Cl)cc1Cl` reads 0.0117 µM (≈ 0.00424 µg/mL); that for `CCc1ccc(C)cc1`, 790 µM (≈ 94.9 µg/mL); that for `Clc1cccc(-c2ccccc2)c1Cl`, 4.47 µM (≈ 0.997 µg/mL). `Clc1ccc(-c2c(Cl)cccc2Cl)cc1`: the solubility is 0.617 µM (≈ 0.159 µg/mL). `O=Cc1ccc([N+](=O)[O-])cc1` gave a solubility of 15500 µM (≈ 2340 µg/mL). `Clc1ccc(-c2c(Cl)ccc(Cl)c2Cl)cc1Cl` had a solubility of 0.0224 µM (≈ 0.00731 µg/mL). With `CCCCCCCOC(=O)c1ccc(N)cc1`, the solubility was determined as 25.1 µM (≈ 5.91 µg/mL). `Clc1ccc(Cl)c(-c2ccccc2)c1Cl` gave a solubility of 0.323 µM (≈ 0.0833 µg/mL). Turning to `CCOCCOCC`, the solubility stood at 708000 µM (≈ 83700 µg/mL).

As to `Fc1cccc(F)c1`, the solubility was 9990 µM (≈ 1140 µg/mL). Turning to `CCCCCCCCOC(=O)c1ccc(N)cc1`, the solubility was 3.98 µM (≈ 0.993 µg/mL). This solubility is about 2500-fold lower than that of the compound before. In turn, `CC(=O)Nc1ccccc1[N+](=O)[O-]` displayed a solubility of 12300 µM (≈ 2220 µg/mL). This solubility lies about 3100-fold higher than the previous one. Regarding `CCCCCC(C)O` (stereo not given), the solubility worked out at 28100 µM (≈ 3270 µg/mL). Still for that read-out and setting: the value for `CCCC[N+](=O)[O-]` was 44600 µM (≈ 4600 µg/mL); that for `CCCCCCN` was 119000 µM (≈ 12000 µg/mL).

Consider `Clc1ccccc1-c1c(Cl)cccc1Cl`, for which the solubility came out at 1.26 µM (≈ 0.324 µg/mL). Same read-out and setting: the value for `Clc1cccc(-c2c(Cl)ccc(Cl)c2Cl)c1Cl` was 0.166 µM (≈ 0.0542 µg/mL); that for `Clc1ccc(-c2ccc(Cl)c(Cl)c2Cl)c(Cl)c1` was 0.024 µM (≈ 0.00783 µg/mL). The same measure, in the same setting: the result for `Clc1ccccc1-c1ccc(Cl)c(Cl)c1Cl` reads 0.148 µM (≈ 0.0432 µg/mL).

`CCCOC(N)=O` showed a solubility of 741000 µM (≈ 76400 µg/mL).
